Measured values reported in patent publication US20070293484A1, “Thiophene Heteroaryl Amines” (SUGEN, INC., priority 2004, published 2007).

Columns and labels:
GST-Flk1 = biological target: T1, GST-Flk1 (Mus musculus, UniProt P35918); test: GST-FLK-1 bioassay (ELISA, tyrosine kinase activity on poly(glu,tyr)); assay type: biochemical
T1 construct: GST-Flk1cd purified from sf9 recombinant baculovirus transformation (SUGEN, Inc.); host or cells: Sf9 insect cells (recombinant baculovirus)
Procedure: The assays described herein are performed in an ELISA (Enzyme-Linked Immunosorbent Sandwich Assay) format (Voller, et al., 1980, “Enzyme-Linked Immunosorbent Assay,” Manual of Clinical Immunology, 2d ed., Rose and Friedman, Am. Soc. Of Microbiology, Washington, D.C., pp. 359-371). The general procedure is as follows: a compound is introduced to cells expressing the test kinase, either naturally or recombinantly, for a selected period of time after which, if the test kinase is a receptor, a ligand known to activate the receptor is added. The cells are lysed and the lysate is transferred to the wells of an ELISA plate previously coated with a specific antibody recognizing the substrate of the enzymatic phosphorylation reaction. Non-substrate components of the cell lysate are washed away and the amount of phosphorylation on the substrate is detected with an antibody specifically recognizing phosphotyrosine compared with control cells that were not contacted with a test compound.
This assay analyzes the tyrosine kinase activity of GST-Flk1 on poly(glu,tyr) peptides.
• 1. Corning 96-well ELISA plates (Corning Catalog No. 5805-96). • 2. poly(glu,tyr) 4:1, lyophilizate (Sigma Catalog #P0275). • 3. Preparation of poly(glu,tyr)(pEY) coated assay plates: Coat 2 ug/well of poly(glu,tyr)(pEY) in 100 μL PBS, hold at room temperature for 2 hours or at 4° C. overnight. Cover plates well to prevent evaporation. • 4. PBS Buffer: for 1 L, mix 0.2 g KH2PO4, 1.15 g Na2HPO4, 0.2 g KCl and 8 g NaCl in approx. 900 ml dH2O. When all reagents have dissolved, adjust the pH to 7.2 with HCl. Bring total volume to 1 L with dH2O. • 5. PBST Buffer: to 1 L of PBS Buffer, add 1.0 ml Tween-20. • 6. TBB—Blocking Buffer: for 1 L, mix 1.21 g TRIS, 8.77 g NaCl, 1 ml TWEEN-20 in approximately 900 ml dH2O. Adjust pH to 7.2 with HCl. Add 10 g BSA, stir to dissolve. Bring total volume to 1 L with dH2O. Filter to remove particulate matter. • 7. 1% BSA in PBS: To make a 1× working solution, add 10 g BSA to approx. 990 ml PBS buffer, stir to dissolve. Adjust total volume to 1 L with PBS buffer, filter to remove particulate matter. • 8. 50 mM Hepes pH 7.5. • 9. GST-Flk1cd purified from sf9 recombinant baculovirus transformation (SUGEN, Inc.). • 10. 4% DMSO in dH2O. • 11. 10 mMATP in dH2O. • 12. 40 mM MnCl2 • 13. Kinase Dilution Buffer (KDB): mix 10 ml Hepes (pH 7.5), 1 ml 5M NaCl, 40 μL 100 mM sodium orthovanadate and 0.4 ml of 5% BSA in dH2O with 88.56 ml dH2O. • 14. NUNC 96-well V bottom polypropylene plates, Applied Scientific Catalog #AS-72092 • 15. EDTA: mix 14.12 g ethylenediaminetetraacetic acid (EDTA) to approx. 70 ml dH2O. Add 10 N NaOH until EDTA dissolves. Adjust pH to 8.0. Adjust total volume to 100 ml with dH2O. • 16. 1^0 Antibody Dilution Buffer: mix 10 ml of 5% BSA in PBS buffer with 89.5 ml TBST. • 17. Anti-phosphotyrosine monoclonal antibody conjugated to horseradish peroxidase (PY99 HRP, Santa Cruz Biotech). • 18. 2,2′-Azinobis(3-ethylbenzthiazoline-6-sulfonic acid (ABTS, Moss, Cat. No. ABST). • 19. 10% SDS. Procedure: • 1. Coat Corning 96-well ELISA plates with 2 μg of polyEY peptide in sterile PBS as described in step 3 of Materials and Reagents. • 2. Remove unbound liquid from wells by inverting plate. Wash once with TBST. Pat the plate on a paper towel to remove excess liquid. • 3. Add 100 μl of 1% BSA in PBS to each well. Incubate, with shaking, for 1 hr. at room temperature. • 4. Repeat step 2. • 5. Soak wells with 50 mM HEPES (pH7.5) (150 μl/well). • 6. Dilute test compound with dH2O/4% DMSO to 4 times the desired final assay concentration in 96-well polypropylene plates. • 7. Add 25 μl diluted test compound to ELISA plate. In control wells, place 25 μl of dH2O/4% DMSO. • 8. Add 25 μl of 40 mM MnCl2 with 4×ATP (2 μM) to each well. • 9. Add 25 μl 0.5M EDTA to negative control wells. • 10. Dilute GST-Flk1 to 0.005 μg (5 ng)/well with KDB. • 11. Add 50 μl of diluted enzyme to each well. • 12. Incubate, with shaking, for 15 minutes at room temperature. • 13. […]

PDGFR = biological target: T2, PDGFR (Homo sapiens, UniProt P09619); test: PDGFR bioassay (ELISA, in vitro kinase activity); assay type: biochemical; conditions: PDGFR-β expressing NIH 3T3 cell lysate; read-out: IC50 (μM) PDGF-R
T2 construct: SUGEN, Inc; host or cells: NIH 3T3 cell lysate; receptor captured on plate with monoclonal anti-PDGFR antibody 28D4C10
T2 sequence (P09619 33-1106, species assumed): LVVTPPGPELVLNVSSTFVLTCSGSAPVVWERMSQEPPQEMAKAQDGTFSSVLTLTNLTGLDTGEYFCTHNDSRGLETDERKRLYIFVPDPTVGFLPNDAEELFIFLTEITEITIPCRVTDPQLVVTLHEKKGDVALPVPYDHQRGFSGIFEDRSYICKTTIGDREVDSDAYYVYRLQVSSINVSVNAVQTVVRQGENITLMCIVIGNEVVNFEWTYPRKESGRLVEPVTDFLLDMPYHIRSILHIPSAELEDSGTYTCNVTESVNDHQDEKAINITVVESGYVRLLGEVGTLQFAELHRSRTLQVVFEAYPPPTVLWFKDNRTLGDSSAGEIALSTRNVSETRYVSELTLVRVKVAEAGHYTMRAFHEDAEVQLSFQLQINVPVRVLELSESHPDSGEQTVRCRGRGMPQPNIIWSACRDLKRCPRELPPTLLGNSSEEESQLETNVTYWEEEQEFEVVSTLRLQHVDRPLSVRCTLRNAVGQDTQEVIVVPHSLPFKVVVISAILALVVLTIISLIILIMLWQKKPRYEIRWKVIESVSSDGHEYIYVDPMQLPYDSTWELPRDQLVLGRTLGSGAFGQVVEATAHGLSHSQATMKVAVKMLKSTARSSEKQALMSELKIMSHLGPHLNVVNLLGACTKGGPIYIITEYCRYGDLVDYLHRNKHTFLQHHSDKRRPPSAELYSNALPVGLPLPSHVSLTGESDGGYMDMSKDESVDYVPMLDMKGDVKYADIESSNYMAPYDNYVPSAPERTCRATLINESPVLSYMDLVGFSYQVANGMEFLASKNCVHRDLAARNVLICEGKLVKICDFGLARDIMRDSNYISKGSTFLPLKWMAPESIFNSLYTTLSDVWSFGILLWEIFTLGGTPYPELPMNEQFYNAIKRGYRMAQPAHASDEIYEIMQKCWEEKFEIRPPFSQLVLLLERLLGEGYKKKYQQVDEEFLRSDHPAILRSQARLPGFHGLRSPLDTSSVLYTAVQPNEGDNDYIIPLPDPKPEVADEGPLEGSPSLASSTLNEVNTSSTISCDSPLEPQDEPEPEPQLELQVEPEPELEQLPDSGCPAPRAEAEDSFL

T1 sequence (P35918 784-1345 limits assumed): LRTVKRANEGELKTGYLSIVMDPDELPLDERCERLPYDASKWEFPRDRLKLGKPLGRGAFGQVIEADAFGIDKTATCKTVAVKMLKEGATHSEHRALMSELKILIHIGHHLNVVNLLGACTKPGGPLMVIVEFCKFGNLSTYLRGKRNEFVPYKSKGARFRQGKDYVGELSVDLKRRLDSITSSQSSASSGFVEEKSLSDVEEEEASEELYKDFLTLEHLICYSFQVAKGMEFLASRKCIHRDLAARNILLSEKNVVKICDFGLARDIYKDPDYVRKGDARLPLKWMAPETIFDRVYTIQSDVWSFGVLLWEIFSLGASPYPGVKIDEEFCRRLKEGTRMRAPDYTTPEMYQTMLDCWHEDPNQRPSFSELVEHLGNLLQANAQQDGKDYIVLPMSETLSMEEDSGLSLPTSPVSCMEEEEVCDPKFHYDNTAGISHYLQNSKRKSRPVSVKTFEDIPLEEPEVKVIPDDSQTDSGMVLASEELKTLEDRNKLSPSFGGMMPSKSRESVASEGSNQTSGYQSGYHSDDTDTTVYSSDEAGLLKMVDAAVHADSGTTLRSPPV

With `c1cc(Nc2ncc(-c3ccsc3)cn2)cc(N2CCOCC2)c1` [Example 39, N-(3-morpholin-4-ylphenyl)-5-thien-3-ylpyrimidin-2-amine] the IC50 (GST-Flk1) was 2 µM and the IC50 (PDGFR) was 0.15 µM.

With `O=C(Nc1ccc(F)cc1)Nc1ncc(-c2ccsc2)cn1` [Example 10, N-(4-fluorophenyl)-N′-(5-thien-3-ylpyrimidin-2-yl)urea] the IC50 (GST-Flk1) was over 20 µM and the IC50 (PDGFR) was over 20 µM.

`CCN(CC)c1cccc(Nc2ncc(-c3ccsc3)cn2)c1` [Example 38, N,N-diethyl-N′-(5-thien-3-ylpyrimidin-2-yl)benzene-1,3-diamine] showed an IC50 (GST-Flk1) of 3 µM and an IC50 (PDGFR) of 1.8 µM.
